# Test system: d(5′-CGCGAATTCGCG-3′)2 (DNA, duplex) CGCGAATTCGCG
# Assay: ethidium bromide displacement, fluorescence quenching, double-log plot
# Details: phosphate buffer 100 mM (cation not given); pH 7.0, 298 K; 20 μM duplex saturated with EtBr (5.07 μM), displaced; compound slowly decomposes in water; apparent
smiles,measurement,value
[Ru+2].[Ru+2].[Ru+2].[Ru+2].[Ru+2].[Ru+2].[Ru+2].[Ru+2].[Ru+2].[Ru+2].[Ru+2].[Ru+2].c1cc2ccc1-c1ccc(cc1)-c1ccc(cc1)-c1ccc(cc1)-c1ccc(cc1)-c1ccc(cc1)-c1ccc(cc1)-c1ccc(cc1)-c1ccc(cc1)-c1ccc(cc1)-c1ccc(cc1)-c1ccc-2cc1.c1cc[cH-]c1.c1cc[cH-]c1.c1cc[cH-]c1.c1cc[cH-]c1.c1cc[cH-]c1.c1cc[cH-]c1.c1cc[cH-]c1.c1cc[cH-]c1.c1cc[cH-]c1.c1cc[cH-]c1.c1cc[cH-]c1.c1cc[cH-]c1,Kb,3.162 × 10^5 ± 0.001 M^-1

# From article PMC10818589 (2024)
